The experiment addresses T1, human neutrophil elastase (Homo sapiens, UniProt P08246).
T1 construct: purchased Elastin Products Company
T1 sequence (P08246 30-267): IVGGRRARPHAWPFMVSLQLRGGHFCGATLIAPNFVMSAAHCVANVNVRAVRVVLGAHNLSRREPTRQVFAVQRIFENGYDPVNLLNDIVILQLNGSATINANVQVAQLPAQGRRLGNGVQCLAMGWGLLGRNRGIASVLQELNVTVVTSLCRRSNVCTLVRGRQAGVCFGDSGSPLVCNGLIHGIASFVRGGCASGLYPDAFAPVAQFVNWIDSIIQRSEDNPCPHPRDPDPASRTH
Briefly: Inhibitory action against human neutrophil elastase (Test Example 1; fluorogenic substrate MeOSuc-AAPV-AMC, buffer with 2M NaCl, 0.002% Brij-35). It counts as biochemical. The note with it: for pIC50: 37° C., read-out: IC50 value (compound concentration required for 50% inhibition of human neutrophil elastase); for Inhibition ratio (%): at 100 μM. As to the method:
Assay buffer (0.4 unit/ml HNE (human neutrophil elastase, available from Elastin Products Company), 200 mM HEPES [N-(2-hydroxyethyl)piperazine-N′-(2-ethanesulfonic acid)], pH 7.5, 2M NaCl, 0.002% Brij-35) 100 μl, water for injection 40 μl and DMSO (dimethyl sulfoxide) solution of the present compound 20 μl were mixed in a 96 well plate and the mixed solutions were pre-incubated at 37° C. for five minutes. After pre-incubation, MeOSuc-AAPV-AMC (methoxysuccinyl-alanyl-alanyl-prolyl-valyl-aminomethyl cumaride (available from Sigma Aldrich Co.) solution as fluorogenic substrate (which was dissolved in 10% DMSO solution so as to adjust to 0.5 mM) 40 μl was added to the above-prepared mixed solution so as to initiate the reaction, and the mixture was incubated at 37° C. for five minutes. The fluorescence intensity of AMC was measured at an excitation wavelength of 380 nm and a fluorescence wavelength of 460 nm and the inhibition ratio was determined.

SMILES strings stand for the structures. pIC50: −log10 of the molar value.

In the case of `COC(Cn1c(=O)c(-c2ccnn2-c2ccc(C#N)cc2)c(C)n(-c2cccc(C(F)(F)F)c2)c1=O)OC` [Example 7, 4-[5-[3-(2,2-dimethoxyethyl)-6-methyl-2,4-dioxo-1-(3-trifluoromethylphenyl)-1,2,3,4-tetrahydropyrimidin-5-yl]-1H-pyrazol-1-yl]benzonitrile], the pIC50 was 6.92.

As to `Cc1c(-c2ccnn2-c2ccc(C#N)cc2)c(=O)n(CCCCCNC(=O)OC(C)(C)C)c(=O)n1-c1cccc(C(F)(F)F)c1` [Example 8, tert-butyl 5-[5-[1-(4-cyanophenyl)-1H-pyrazol-5-yl]-4-methyl-2,6-dioxo-3-(3-trifluoromethyl)-2,3-dihydropyrimidine-1(6H)-yl]pentylcarbamate], the pIC50 is 7.19. The same measure, in the same setting: with `COc1ccc(Cn2c(=O)c(-c3ccnn3-c3ccc(C#N)cc3)c(C)n(-c3cccc(C(F)(F)F)c3)c2=O)cc1` [Example 9, 4-[5-[3-(4-methoxybenzyl)-6-methyl-2,4-dioxo-1-(3-trifluoromethylphenyl)-1,2,3,4-tetrahydropyrimidin-5-yl]-1H-pyrazol-1-yl]benzonitrile] the figure was 5.53; with `Cc1c(-c2ccnn2-c2ccc(C#N)cc2)c(=O)n(C)c(=O)n1-c1cccc(C#N)c1` [Example 10, 3-[5-[1-(4-cyanophenyl)-1H-pyrazol-5-yl]-3,6-dimethyl-2,4-dioxo-3,4-dihydropyrimidin-1(2H)-yl]benzonitrile], 6.19; with `Cc1c(-c2ccnn2-c2ccc(C#N)cc2)c(=O)n(C)c(=O)n1-c1cccc(F)c1` [Example 11, 4-[5-[1-(3-fluorophenyl)-3,6-dimethyl-2,4-dioxo-1,2,3,4-tetrahydropyrimidin-5-yl]-1H-pyrazol-1-yl]benzonitrile], 5.87. On the same count and under the same terms, with `COc1cccc(-n2c(C)c(-c3ccnn3-c3ccc(C#N)cc3)c(=O)n(C)c2=O)c1` [Example 12, 4-[5-[1-(3-methoxyphenyl)-3,6-dimethyl-2,4-dioxo-1,2,3,4-tetrahydropyrimidin-5-yl]-1H-pyrazol-1-yl]benzonitrile] the figure was 5.83; with `Cc1c(-c2ccnn2-c2ccc(C#N)cc2)c(=O)n(C)c(=O)n1-c1ccc(F)c(C(F)(F)F)c1` [Example 13, 4-[5-[1-(4-fluoro-3-trifluorophenyl)-3,6-dimethyl-2,4-dioxo-1,2,3,4-tetrahydropyrimidin-5-yl]-1H-pyrazol-1-yl]benzonitrile], 7.07; with `Cc1c(-c2ccnn2-c2ccc(C#N)cc2)c(=O)n(C)c(=O)n1-c1ccccc1` [Example 14, 4-[5-(1-phenyl-3,6-dimethyl-2,4-dioxo-1,2,3,4-tetrahydropyrimidin-5-yl)-1H-pyrazol-1-yl]benzonitrile], 4.90.

On to `Cc1c(-c2ccnn2-c2ccc(C#N)cc2)c(=O)n(C)c(=O)n1-c1ccccc1C(F)(F)F` [Example 15, 4-[5-[3,6-dimethyl-2,4-dioxo-1-(2-trifluoromethylphenyl)-1,2,3,4-tetrahydropyrimidin-5-yl]-1H-pyrazol-1-yl]benzonitrile], for which the “Inhibition ratio (%)” value is listed as 76%. On to `Cc1c(-c2ccnn2-c2ccc(C#N)cc2)c(=O)n(C)c(=O)n1-c1ccc(C(F)(F)F)cc1` [Example 16, 4-[5-[3,6-dimethyl-2,4-dioxo-1-(4-trifluoromethylphenyl)-1,2,3,4-tetrahydropyrimidin-5-yl]-1H-pyrazol-1-yl]benzonitrile], for which the “Inhibition ratio (%)” value was found to be 90%. As to `Cc1c(-c2ccnn2-c2ccc(C#N)cc2)c(=O)n(C)c(=O)n1-c1cccc([N+](=O)[O-])c1` [Example 18, 4-[5-[1-(3-nitrophenyl)-3,6-dimethyl-2,4-dioxo-1,2,3,4-tetrahydropyrimidin-5-yl]-1H-pyrazol-1-yl]benzonitrile], the pIC50 is 7.33.

With `Cc1c(-c2ccnn2-c2ccccc2)c(=O)n(C)c(=O)n1-c1cccc(C(F)(F)F)c1` [Example 20, 3,6-dimethyl-5-(1-phenyl-1H-pyrazol-5-yl)-1-(3-trifluoromethylphenyl)pyrimidin-2,4(1H,3H)-dione], the “Inhibition ratio (%)” value came out at 83%. For the compound `Cc1c(-c2ccnn2-c2ccc(F)cc2)c(=O)n(C)c(=O)n1-c1cccc(C(F)(F)F)c1` [Example 22, 5-[1-(4-fluorophenyl)-1H-pyrazol-5-yl]-3,6-dimethyl-1-(3-trifluoromethylphenyl)pyrimidin-2,4(1H,3H)-dione], the pIC50 was 6.10. Same read-out and setting: with `Cc1c(-c2ccnn2-c2ccc(C#N)nc2)c(=O)n(C)c(=O)n1-c1cccc(C(F)(F)F)c1` [Example 23, 5-[5-[3,6-dimethyl-2,4-dioxo-1-(3-trifluoromethylphenyl)-1,2,3,4-tetrahydropyrimidin-5-yl]-1H-pyrazol-1-yl]picolinonitrile] the figure was 6.19; with `CN(C)C=Nc1c(-c2ccnn2-c2ccc(C#N)cc2)c(=O)n(C)c(=O)n1-c1cccc(C(F)(F)F)c1` [Example 28, N′-[5-[1-(4-cyanophenyl)-1H-pyrazol-5-yl]-1-methyl-2,6-dioxo-3-(3-trifluoromethylphenyl)-1,2,3,6-tetrahydropyrimidin-4-yl]-N,N-dimethylformimidamide], 5.65. The same measure, in the same setting: with `CCCn1c(=O)c(-c2ccnn2-c2ccc(C#N)cc2)c(N=CN(C)C)n(-c2cccc([N+](=O)[O-])c2)c1=O` [Example 29, N′-[5-[1-(4-cyanophenyl)-1H-pyrazol-5-yl]-3-(3-nitrophenyl)-2,6-dioxo-1-propyl-1,2,3,6-tetrahydropyrimidin-4-yl]-N,N-dimethylformimidamide] the figure was 5.67; with `Cc1c(-c2ccnn2-c2ccc(C#N)cc2)c(=O)n(CCCCCNC(=O)OC(C)(C)C)c(=O)n1-c1cccc(C(F)(F)F)c1` [Example 30, Tert-butyl 5-[5-[1-(4-cyanophenyl)-1H-pyrazol-5-yl]-4-methyl-2,6-dioxo-3-(3-trifluoromethyl)-2,3-dihydropyrimidine-1 (6H)-yl]pentylcarbamate], 7.19.

With `Cc1c(-c2ccnn2-c2ccc(C#N)cc2)c(=O)n(C)c(=O)n1-c1cccc(C(F)(F)F)c1` [Example 31, 4-[5-[3,6-dimethyl-2,4-dioxo-1-(3-trifluoromethylphenyl)-1,2,3,4-tetrahydropyrimidin-5-yl]-1H-pyrazol-1-yl]benzonitrile], the pIC50 is 7.72.

As for `COC(=O)c1cccc(-n2c(C)c(-c3ccnn3-c3ccc(C#N)cc3)c(=O)n(C)c2=O)c1` [Example 32, 3-[5-[1-(4-cyanophenyl)-1H-pyrazol-5-yl]-3,6-dimethyl-2,4-dioxo-3,4-dihydropyrimidin-1(2H)-yl]benzoic acid methyl ester], the “Inhibition ratio (%)” value is on record as 50%. `Cc1c(-c2ccnn2-c2ccc(C#N)cc2)c(=O)n(C)c(=O)n1-c1cccc(C(F)(F)F)n1` [Example 33, 4-[5-[3,6-dimethyl-2,4-dioxo-1-(6-trifluoromethylpyridine-2-yl)-1,2,3,4-tetrahydropyrimidin-5-yl]-1H-pyrazol-1-yl]benzonitrile]: the pIC50 is 4.13. The same measure, in the same setting: with `Cc1c(-c2ccnn2-c2ccc(C#N)cc2)c(=O)n(C)c(=O)n1-c1cccc(Br)c1` [Example 34, 4-[5-[1-(3-bromophenyl)-3,6-dimethyl-2,4-dioxo-1,2,3,4-tetrahydropyrimidin-5-yl]-1H-pyrazol-1-yl]benzonitrile] the figure was 6.63.

The values are drawn from patent US9040516B2, “Uracil derivative and use thereof for medical purposes” (SUMITOMO DAINIPPON PHARMA CO., LTD., priority 2011, dated 2015).
